Results as given in US5424442A, “Water-soluble methine compounds useful in photographic silver halide emulsion containing the same” (Fuji Photo Film Co., Ltd., priority 1990, dated 1995).

Tests used:
[1] = Solubility in solvents (dissolution in incubator, filtration through microfilter, visible absorption); format: physicochemical; settings: 37° C., 12 hours, Table 2
Excerpt: The solubility of some of the compounds within formula (I) was accurately measured.
The measurement of solubility was made in the following manner.

[2] = Spectral sensitization of photographic silver halide emulsion; parameters: Yellow filter sensitivity (SY) / Red filter sensitivity (SR): scale not given here; settings: Table 4
Description: A silver halide emulsion comprising pure silver bromide and having a cubic crystal form (the area ratio of the plane to the entire surface area of grain being 92%) was prepared and subjected to a sulfur sensitization treatment. The average diameter of silver halide grains contained in the emulsion was 0.68 μm, and 0.74 mol of silver halide per kg of emulsion was contained in the emulsion. One kg of the emulsion was weighed in each of pots. An aqueous solution of each of the compounds of formula (I) indicated in Tables 4 and 5 was added to the pot, and the mixture was mixed with stirring at 40° C. For the purpose of comparison, comparative compounds 1 and 2 wherein counter ion was iodide were dispersed in water and added to respective pots.
Further, 4-hydroxy-6-methyl-1,3,3a,7-tetraazaindene in an amount of 0.1 g/kg of emulsion, sodium salt of 2,4-dichloro-6-hydroxy-1,3,5-triazine in an amount of 0.1 g/kg of emulsion and sodium dodecylbenzenesulfonate in an amount of 0.1 g/kg of emulsion in order were added thereto. The emulsion was then coated on a polyethylene terephthalate film to obtain a photographic material.
Each of these samples was exposed through an optical wedge for 5 seconds by using a yellow filter (SC-50, a product of Fuji Photo Film Co., Ltd.) or a red filter (SC-60, a product of Fuji Photo Film Co., Ltd.) and tungsten light (5400° K.).
A spectrogram was obtained by using a grating spectrograph having a tungsten light source of 2666° K., and the maximum sensitization was measured.
After exposure, the samples were developed at 20° C for 4 minutes by using the following developing solution. The density of each of the developed films was measured by using a densitometer (manufactured by Fuji Photo Film Co., Ltd. Spectral sensitivity, that is, yellow filter sensitivity (SY) or red filter sensitivity (SR), sensitivity (SB) in the sensitive region inherent in silver halide, and fog were determined. Sensitivity was determined when the standard point of optical density was referred to as (Fog+0.2). Composition of Developing Solution […]
Two volumes of water were added thereto to obtain a working solution when used.

Solubility in MeOH ([1]; MeOH, 720 min): > 10000 µg/mL
solubility at 12 h ([1]; water, H2O, read-out: Solubility in H2O): 6900 µg/mL
Compound: CCn1c(=Cc2oc3c4ccccc4ccc3[n+]2CC)sc(=C2Sc3ccccc3N2C)c1=O [Compound 134]
Maximum Sensitization ([2]; spectrogram, tungsten light source of 2666° K.): 520 nm
Yellow filter sensitivity (SY) ([2]; yellow filter SC-50, 5 seconds exposure, standard point Fog+0.2): 1350
